Experimental findings from patent publication US6369110B1, “Substituted guanidine derivatives and process for producing the same” (Sumitomo Pharmaceuticals Company, priority 1998, dated 2002) are described below.

The test has as its target T1, Na+/H+ exchange transport system (Rattus norvegicus, UniProt P26431).
T1 construct: a pH change in isolated ventricular myocytes (rat) under an acid load; from tissue; host or cells: isolated rat ventricular myocytes
Briefly: Inhibitory effect on the Na+/H+ exchange transport system (in vitro), pH change in isolated ventricular myocytes under an acid load. Format: cell-based. As for the experimental part:
Inhibitory Effect on the Na^+/H^+ Exchange Transport System (In Vitro)
A test was carried out according to the method of Iemori et al. (J. Hypertension, 8, 153(1990)). In detail, inhibitory effect on the Na^+/H^+ exchange transport system was evaluated by using as an indication a pH change in isolated ventricular myocytes (rat) under an acid load.

pIC50: −log10 of the molar value. Where only a bound is given, the exact number is not on record here.

T1 sequence (P26431 whole entry): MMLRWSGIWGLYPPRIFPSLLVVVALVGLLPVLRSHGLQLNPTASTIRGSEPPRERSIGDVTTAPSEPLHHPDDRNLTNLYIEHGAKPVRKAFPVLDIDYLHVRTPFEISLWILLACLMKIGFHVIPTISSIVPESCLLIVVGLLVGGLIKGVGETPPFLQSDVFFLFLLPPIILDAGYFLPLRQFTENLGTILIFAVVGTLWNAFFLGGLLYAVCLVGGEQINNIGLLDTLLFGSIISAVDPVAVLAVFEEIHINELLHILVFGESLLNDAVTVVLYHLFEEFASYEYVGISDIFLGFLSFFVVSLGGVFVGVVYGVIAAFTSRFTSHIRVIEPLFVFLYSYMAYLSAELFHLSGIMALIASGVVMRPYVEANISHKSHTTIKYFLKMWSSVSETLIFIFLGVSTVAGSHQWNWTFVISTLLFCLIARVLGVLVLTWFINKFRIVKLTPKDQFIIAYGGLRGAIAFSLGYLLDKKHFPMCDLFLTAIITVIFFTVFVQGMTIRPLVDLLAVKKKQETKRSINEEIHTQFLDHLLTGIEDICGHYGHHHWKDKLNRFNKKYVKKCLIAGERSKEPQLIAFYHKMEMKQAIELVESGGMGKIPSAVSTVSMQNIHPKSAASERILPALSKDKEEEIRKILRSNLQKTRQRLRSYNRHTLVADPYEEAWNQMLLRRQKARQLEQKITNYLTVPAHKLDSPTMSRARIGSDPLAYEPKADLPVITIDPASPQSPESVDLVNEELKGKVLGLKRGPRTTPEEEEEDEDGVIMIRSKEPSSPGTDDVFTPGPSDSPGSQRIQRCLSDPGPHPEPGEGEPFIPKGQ

As usually defined, the pIC50 is the IC50 on a negative log10 scale, so that one unit is a factor of ten. A higher pIC50 goes with a low IC50. In the case of “N-(aminoiminomethyl)-5-methoxy-3,4-dihydronaphthalene-2-carboxamide Methanesulfonate [Example 2]”, the pIC50 is 7.00.

`CC1CC(C(=O)NC(=N)N)=Cc2ccccc2C1` (stereo not drawn) [Example 11, N-(aminoiminomethyl)-6-methyl-6.7-dihydro-5H-benzocycloheptene-8-carboxamide Methanesulfonate] showed a pIC50 of 6.68.

“N-(aminoiminomethyl)-2,3-dihydro-1H-benz[b]azepine-4-carboxamide dimethane-sulfonate [Example 5]”: the pIC50 is 6.82.

Consider “N-(aminoiminomethyl)-4-methylthio-6,7-dihydro-5H-benzocycloheptene-8-carboxamide Methanesulfonate [Example 14]”, for which the pIC50 was 7.52.

“N-(aminoiminomethyl)-7-methyl-6,7-dihydro-5H-benzocycloheptene-8-carboxamide Methanesulfonate [Example 10]” had a pIC50 of 8.00.

“N-(aminoiminomethyl)-2,3-dihydro-benz[b]oxepine-4-carboxamide Methanesulfonate [Example 6]”: the pIC50 was 7.15.

Compound “N-(aminoiminomethyl)-3,4-dihydronaphthalene-2-carboxamide Methanesulfonate [Example 1]” had a pIC50 of 6.52.

“N-(aminoiminomethyl)-4-methylsulfonyl-6,7-dihydro-5H-benzocycloheptene-8-carboxamide Methanesulfonate [Example 15]” had a negative logarithm of the IC50 (pIC50) of 7.52.

In the case of “N-(aminoiminomethyl)-4,9-dimethyl-6,7-dihydro-5H-benzocycloheptene-8-carboxamide Methanesulfonate [Example 9]”, the pIC50 was 5.64.

For “N-(aminoiminomethyl)-2-methylthio-6,7-dihydro-5H-benzocycloheptene-8-carboxamide Methanesulfonate [Example 12]”, the pIC50 is 6.34.

Regarding “N-(aminoiminomethyl)-9-methyl-6,7-dihydro-5H-benzocycloheptene-8-carboxamide Methanesulfonate [Example 8]”, the pIC50 is 5.15.

Turning to “N-(aminoiminomethyl)-2-methylsulfonyl-6,7-dihydro-5H-benzocycloheptene-8-carboxamide Methanesulfonate [Example 13]”, the negative-log IC50 (pIC50) was less than 5.00.

Turning to “N-(aminoiminomethyl )-6,7-dihydro-5H-benzocycloheptene-8-carboxamide Methanesulfonate [Example 3]”, the pIC50 was 7.30.

For the compound “N-(aminoiminomethyl)-1-(4-methylphenylsulfonyl)-2,3-dihydro-1H-benz[b]azepine-4-carboxamide Methanesulfonate [Example 4]”, the pIC50 was 5.48.

With “N-(aminoiminomethyl)-5-methyl-6,7-dihydro-5H-benzocycloheptene-8-carboxamide Methanesulfonate [Example 7]”, the pIC50 is 7.30.
